Patent US20150119378A1, “AZETIDINYLOXY-, PYRROLIDINYLOXY-, AND PIPERIDINYLOXY-SUBSTITUTED METANICOTINES AS NEURONAL NICOTINIC ACETYLCHOLINE RECEPTOR LIGANDS” (priority 2013, published 2015)
Read-outs that look alike come from different tables or passages of the source.

How the values were obtained:
Human α4β2 = molecular target: T1, Human α4β2 (Homo sapiens, UniProt P17787+P43681); experiment: Competition binding to receptors in membrane preparations, human α4β2 ([3H]-nicotine)
T1 construct: expressed in transfected cells; obtained from Dr. Ron Lukas, Barrow Neurological Institute
Method: (§1) SH-EP1/human α4β2 (Eaton et al., 2003), SH-EP1/human α4β4 (Gentry et al., 2003), SH-EP1/α6β3β4α5 (Grinevich et al., 2005), TE671/RD and SH-SY5Y cell lines (obtained from Dr. Ron Lukas, Barrow Neurological Institute) were maintained in proliferative growth phase in Dulbecco's modified Eagle's medium (Gibco/BRL) with 10% horse serum (Gibco BRL), 5% fetal bovine serum (HyClone, Logan Utah), 1 mM sodium pyruvate, 4 mM L-glutamine. For maintenance of stable transfectants, the α4β2 and α4β4 cell media was supplemented with 0.25 mg/mL zeocin and 0.13 mg/mL hygromycin B. Selection was maintained for the α6β3β4α5 cells with 0.25 mg/mL of zeocin, 0.13 mg/mL of hygromycin B, 0.4 mg/mL of geneticin, and 0.2 mg/mL of blasticidin. HEK/human α7/RIC3 cells (obtained from J. Lindstrom, U. Pennsylvania) were maintained in proliferative growth phase in Dulbecco's modified Eagle's medium (Gibco/BRL) with 10% fetal bovine serum (HyClone, Logan Utah), 1 mM sodium pyruvate, 4 mM L-glutamine, 0.4 mg/mL geneticin; 0.2 mg/ml hygromycin B.
(§2) Cells were harvested in ice-cold PBS, pH 7.4, then homogenized with a polytron (Brinkmann Instruments, Westbury, N.Y.). Homongenates were centrifuged at 40,000 g for 20 minutes (4° C.). The pellet was resuspended in PBS and protein concentration determined using the Pierce BCA Protein Assay kit (Pierce Biotechnology, Rockford, Ill.).
(§3) Binding to nicotinic receptors was assayed on membranes using standard methods adapted from published procedures (Lippiello and Fernandes, 1986; Davies et al., 1999). In brief, membranes were reconstituted from frozen stocks (approximately 0.2 mg protein) and incubated for 2 h on ice in […] assay buffer (PBS) in the presence of competitor compound (0.001 nM to […]) and radioligand. [^3H]-nicotine (L-(−)-[N-methyl-3H]-nicotine, 69.5 Ci/mmol, Perkin-Elmer Life Sciences) was used for human α4β2 binding studies. [^3H]-epibatidine (52 Ci/mmol, Perkin-Elmer Life Sciences) was used for binding studies at the other receptor subtypes. Incubation was terminated by rapid filtration on a multimanifold tissue harvester (Brandel, Gaithersburg, Md.) using GF/B filters presoaked in 0.33% polyethyleneimine (w/v) to reduce non-specific binding. Filters were washed 3 times and the radioactivity retained was determined by liquid scintillation counting.
(§4) Binding data were expressed as percent total control binding. Replicates for each point were averaged and plotted against the log of drug concentration. The IC50 (concentration of the compound that produces 50% inhibition of binding) was determined by least squares non-linear regression using GraphPad Prism software (GraphPAD, San Diego, Calif.). Ki was calculated using the Cheng-Prusoff equation (Cheng and Prusoff, 1973).

Human Ganglion = molecular target: T2, Human Ganglion (Homo sapiens, UniProt P30926+P32297); experiment: Competition binding to receptors in membrane preparations, human ganglion subtype ([3H]-epibatidine)
T2 construct: endogenous in cells
Method: as §1, §2, §3, §4

Rat Ganglion = Rat Ganglion (Rattus norvegicus, UniProt P04757+P12392); experiment: Competition binding to receptors in membrane preparations, rat ganglion subtype ([3H]-epibatidine)
Method: as §3, §4

Human α7 nAChR = molecular target: T3, Human α7 nAChR (Homo sapiens, UniProt P36544); experiment: Competition binding to receptors in membrane preparations, human α7 ([3H]-epibatidine)
T3 construct: expressed in transfected cells; host or cells: HEK cells co-expressing RIC3 (from J. Lindstrom, U. Pennsylvania)
Method: as §1, §2, §3, §4

[1] = test system: memory (recognition) task in the rat; experiment: Object recognition task (NOR); format: in vivo, male Sprague-Dawley rats
Method: The compounds of the present invention were assessed for cognitive enhancing properties in the object recognition task in rats. In more detail, the compounds of the present invention, specifically Test Compound, (2S,4E)-N-methyl-5-(5-((3R)-1-(4,4,4-trifluorobutanoyl)pyrrolidin-3-yloxy)-6-chloro-3-pyridinyl)-4-penten-2-amine, or a pharmaceutically acceptable salt thereof, such as the hemi-galactarate, were tested to characterize the cognitive-enhancing properties of in a memory (recognition) task in the rat following oral dosing. Reference is made, for example, to Ennaceur A., et al., (1988), A New One-Trial Test for Neurobiological Studies of Memory in Rats, Behavioral Brain Research, 31, pp. 47-59.
The animals used were male Sprague-Dawley rats (Charles River, Raleigh, N.C., USA), of 134-173 g body weight range on receipt. The animals were stabilized for at least 6 days after delivery in plastic cages on alpha-dry bedding with access to food and water (2 per cage).
The Test Compound was dissolved in deionized water. The treatment schedule was 0.001, 0.01 and 0.1 mg/kg of base (salt/base ratio=1.25; equivalent to […]) or vehicle was administered p.o. 6H before exploratory, acquisition, and recall object recognition trials. All treatments were separated by 24 h, however although the acclimation and acquisition trials were separated by 24 h, the recall trial occurred 30 h after the acquisition trial (i.e. 6 h after the third dose).
The method of evaluation included cognitive activity using the method of Luine et al. A statistical analysis was performed using parametric distribution (exploration time): Student's t-test; (% RI): Kruskall-Wallace One-way ANOVA on Ranks with Dunn's method for post-hoc analyses.

[2] = test system: scopolamine induced deficit in mice; experiment: Morris Water Maze, scopolamine-induced memory (spatial) deficit; format: in vivo, male CD-1 mice
Method: Compounds of the present invention were tested in the Morris Water Navigation Task to characterize the cognitive-enhancing properties, namely through a chemically-induced memory (spatial) deficit task in the mouse.
The animals were male CD-1 mice (Charles River, Raleigh, N.C., USA), with 25-30 g body weight range on receipt. Animals were stabilized for at least 5 days after delivery in plastic cages on alpha-dry bedding with free access to food and water.
Test Compound, (2S,4E)-N-methyl-5-(5-((3R)-1-(4,4,4-trifluorobutanoyl)pyrrolidin-3-yloxy)-6-chloro-3-pyridinyl)-4-penten-2-amine, or a pharmaceutically acceptable salt thereof, such as the hemi-galactarate, was dissolved in deionized water (salt/base ratio=1.25).
The treatment schedule included scopolamine (0.75 mg/kg; s.c.) administered 15 minutes before the first training session each training day in combination with Test Compound (0.3, 1, 3 mg/kg of base) administered i.g. 25 minutes before the first training session each training day.
Scopolamine (0.75 mg/kg; s.c.) alone was administered 15 minutes before the training session each training day.
Cognitive activity was evaluated using an acquisition procedure in the Morris water maze whereby animals are administered a cognitively impairing compound (scopolamine) alone or in combination with a Test Compound during training sessions on days 1-4. Performance is evaluated on day 5 during a probe trial without any drug on board.
Preliminary analysis used one-way analysis of variance followed by post-hoc t-tests (Dunnetts) where applicable.

[3] = 0.3 mg/kg i.g. with scopolamine 0.75 mg/kg s.c., vs scopolamine alone, Dunnett's p<0.01

Row | Compound | Ki (Human α4β2; read-out: Human α4β2 Ki) [µM] | Ki (Human Ganglion) [µM] | Ki (Rat Ganglion) [µM] | Ki (Human α7 nAChR) [µM] | overt behavioral side effects ([1]; 0.001, 0.01, 0.1 mg/kg p.o., rats) | recognition index (% RI) compared to vehicle-treated group ([1]; all dose groups 0.001-0.1 mg/kg p.o., statistical significance at the two higher doses) | time investigating object B (novel) versus object A (familiar) ([1]; any dose (0.001, 0.01 or 0.1 mg/kg p.o.), recall 6 h after third daily dose) | MED for % RI ([1]; p.o., rats, non-parametric statistical analyses) [mg/kg] | episodic memory, % RI (summary) ([1]; young rats, dose range of 0.01 to 0.1 mg/kg, strong trend at 0.001 mg/kg) | mean distance from the platform (proximity) in the probe trial [2, 3] | time spent in the target quadrant in the probe trial [2, 3] | time spent in the target quadrant in the probe trial ([2]; 3.0 mg/kg i.g. with scopolamine 0.75 mg/kg s.c., vs scopolamine alone, Dunnett's p<0.05) | spatial memory performance (summary) ([2]; doses of 0.3 and 3.0 mg/kg, animals cognitively impaired by scopolamine) | Ki (Human α4β2) [µM]
1 | CN[C@@H](C)C/C=C/c1cncc(O[C@@H]2CCN(C(=O)C3CCCC3)C2)c1 | 0.0074 | 14 | 28 | 26 |  |  |  |  |  |  |  |  |  | 
2 | CN[C@@H](C)C/C=C/c1cnc(Cl)c(O[C@@H]2CCN(C(=O)CCC(F)(F)F)C2)c1 [Test Compound, (2S,4E)-N-methyl-5-(5-((3R)-1-(4,4,4-trifluorobutanoyl)pyrrolidin-3-yloxy)-6-chloro-3-pyridinyl)-4-penten-2-amine] |  |  |  |  | No overt behavioral side effects were observed | improved | spent significantly (P<0.05) more time investigating object B (novel) than object A (familiar) | 0.01 | facilitates episodic memory | significantly improved performance | significantly improved performance | significantly improved performance | significantly improved spatial memory performance | 
3 | CN[C@@H](C)C/C=C/c1cnc(Cl)c(O[C@@H]2CCN(C(=O)CCC(F)(F)F)C2)c1 [drawing 62] |  | 7.4 | 15 | 55 |  |  |  |  |  |  |  |  |  | 0.0014
